According to patent publication US20180077929A1, “METHODS AND SYSTEMS FOR TREATING MEDICAL DEVICES AND FLUIDS” (priority 2016, published 2018):

Experiments:
[1] = Testing of various sources of LPS with CaSt in water; assay type: biochemical
Procedure: Therefore, for the methods described above, the activity of endotoxin was tested with various sources of endotoxin. Laboratory grown endotoxin is purified while natural endotoxin will be present with other substances such as proteins and phospholipids.
The laboratory grown endotoxin used in this experiment was supplied by Charles River Laboratories.
Natural airborne endotoxin was captured using an electret filter. Electret filters are produced from dielectric polymer fibers that develop an electrical charge when air flows past them, capturing the endotoxin along with other particles. The endotoxin was extracted from the filter by placing the filter in endotoxin free water for an extended period of time.
Two other natural sources of endotoxin were obtained from water samples in the surrounding environment. One source was a pool of sitting rain water and other being a small puddle on the side of the Raritan River. The sitting rain water (SRW) was purified via chlorination and 0.2 μm filter. The Raritan River Water (RRW) was not altered in anyway. The same testing procedure was conducted for all sources of endotoxin.

[2] = Suture testing in ethanol, cyclohexane, isopropanol with 1% CaSt; assay type: biochemical; conditions: for Endotoxin Detected: control suture 68.1 EU
Procedure: Similarly to the testing above, an absorbable suture of the same type, similarly contaminated, was exposed to CaSt in three solvents (ethanol, cyclohexane, isopropanol). The suture was then tested for LPS. […] In presence of CaSt 1% suspension (CaSt could be slightly soluble in the solvents), LPS activity decreased by 75-95%.
Sutures used were 27 inch long pieces of absorbable lactide-glycolide sutures. Endotoxin sources used were Stagnant Rain Water (SRW) and LRW (3980 EU/mL). 7 strands of suture were placed in tubing with endotoxin solution for 10 minutes at a time. The sutures were dried for 20 minutes and then placed in round bottom tubes. […] 1 suture was placed in each tube and vortexed in this solution for approximately 10 seconds. The sutures were removed and allowed to dry for 20 minutes and then placed in round bottom tubes. This was done for 6 sutures. 1 piece of suture, serving as the control, was not submerged in any solutions and placed in test tubes. 3 mL of LAL reagent water was added to each test tube, vortexed vigorously, and then placed in a hot water bath at 37° C. for 1 hour. They were then removed, vortexed vigorously, diluted, and tested on the MCS system.

[3] = Suture testing in aqueous suspension of CaSt; assay type: biochemical
Procedure: Treatment of sutures in aqueous suspensions of CaSt was performed as follows: Suture used was VICRYL® (Polyglactin 910) suture made of a copolymer made from 90% glycolide and 10% L-lactide, Size 1, 27 inch pieces. Endotoxin sources used were sitting (or stagnant) Rain Water (SRW) and diluted with LRW to obtain a concentration of (3980 EU/mL). Endosafe LAL Reagent Water (LRW) was used, manufactured by Charles River Laboratories, Charleston S.C.
Eight strands of suture were placed in tubing with LPS (endotoxin) solution for 10 minutes at a time. The sutures were dried for 20 minutes and then placed in round bottom tubes. Suspensions of 5% by weight CaSt in LAL Reagent Water were prepared. (0.5 g CaSt in 10 mL LRW). One suture was placed in each tube and vortexed in this solution for approximately 10 seconds. The sutures were removed and allowed to dry for 20 minutes and then placed in round bottom tubes. This was done for 3 sutures. Three pieces of suture, serving as the control, were not submerged in any solutions and placed in test tubes. 3 mL of LAL reagent water was added to each test tube, vortexed vigorously for 1 minute, and then placed in a hot water bath at 37° C. for 1 hour. They were then removed, vortexed vigorously for 1 minute, diluted, and tested on the MCS system. The water that was mixed with the calcium stearate was also tested. Two sutures were submerged in LRW that was mixed with calcium stearate. The LRW was separated from the calcium stearate before two sutures were submerged. These were also tested for endotoxin on the MCS.

[4] = Animal study: intraperitoneal endotoxin mixed with calcium stearate; assay type: in vivo; conditions: female rats, 4 days, endotoxin alone: severe toxicity
Procedure: An animal study was conducted with 30 female rats with weights ranging from 250-300 g and acclimated for 5 days. All rats were dosed with intraperitoneal injections using 18 gauge needles. The rats were broken into 6 groups. A negative control (NC-1) dosed 5 rats with 5 mL of normal saline solution. […] A positive control (PC-1) dosed 5 rats with 2.5 million EU in a 5 mL saline solution. A second positive control (PC-2) was conducted dosing 5 rats with 5 million endotoxin units in a 5 mL normal saline solution. Two experimental test groups were conducted.
The negative control samples also had no toxicity.

[5] = Charles River Standard, 8330 EU spiked, 0.05 g Calcium Stearate
[6] = Charles River Standard, 8330 EU spiked, 0.15 g Calcium Stearate
[7] = Charles River Standard, 8330 EU spiked, 0.25 g Calcium Stearate
[8] = Dust Filter Extraction Water, 9280 EU spiked, 0.01 g Calcium Stearate
[9] = Dust Filter Extraction Water, 9280 EU spiked, 0.25 g Calcium Stearate
[10] = RRW endotoxin, 4340 EU spiked, 0.01 g Calcium Stearate
[11] = RRW endotoxin, 4340 EU spiked, 0.1 g Calcium Stearate
[12] = RRW endotoxin, 4340 EU spiked, 0.25 g Calcium Stearate
[13] = SRW endotoxin, 11100 EU spiked, 0.01 g Calcium Stearate

Substance: Calcium Stearate
- percent of endotoxin recovered ([1]; 0.1 grams of calcium stearate and higher, all sources of endotoxin): under 5%
- Percent of Endotoxin Detected ([1]; Charles River Standard, 8330 EU spiked, 0.007 g Calcium Stearate): 48.0%
- Percent of Endotoxin Detected ([1]; Charles River Standard, 8330 EU spiked, 0.018 g Calcium Stearate): 17.9%
- Percent of Endotoxin Detected ([1]; Charles River Standard, 8330 EU spiked, 0.028 g Calcium Stearate): 2.8%
- Endotoxin Detected [1, 5]: 190.5 EU
- Percent of Endotoxin Detected [1, 5]: 2.3%
- Endotoxin Detected [1, 6]: 86.5 EU
- Percent of Endotoxin Detected [1, 6]: 1.0%
- Endotoxin Detected [1, 7]: 38.5 EU
- Percent of Endotoxin Detected [1, 7]: 0.5%
- Endotoxin Detected [1, 8]: 3440 EU
- Percent of Endotoxin Detected [1, 8]: 37.1%
- Endotoxin Detected [1, 9]: 28.5 EU
- Percent of Endotoxin Detected [1, 9]: 0.3%
- Endotoxin Detected [1, 10]: 960 EU
- Percent of Endotoxin Detected [1, 10]: 22.1%
- Endotoxin Detected [1, 11]: 165 EU
- Percent of Endotoxin Detected [1, 11]: 3.8%
- Endotoxin Detected [1, 12]: 70 EU
- Percent of Endotoxin Detected [1, 12]: 1.6%
- Percent of Endotoxin Detected ([1]; RRW endotoxin, 4340 EU spiked, 0.35 g Calcium Stearate): 2.6%
- Endotoxin Detected [1, 13]: 2780 EU
- Percent of Endotoxin Detected [1, 13]: 25.0%
- Percent of Endotoxin Detected ([1]; SRW endotoxin, 11100 EU spiked, 0.25 g Calcium Stearate): 1.0%
- LPS activity decreased by ([2]; CaSt 1% suspension in ethanol, cyclohexane, isopropanol): 75-95%
- Change in Endotoxin Level ([2]; suture in Cyclohexane w/1% Calcium Stearate (0.0858 g) vs. control suture): −94.1%
- Endotoxin Detected ([2]; suture in Cyclohexane w/1% Calcium Stearate (0.0858 g)): 4.02 EU
- Change in Endotoxin Level ([2]; suture in Ethanol w/1% Calcium Stearate (0.0827 g) vs. control suture): −77.9%
- Endotoxin Detected ([2]; suture in Ethanol w/1% Calcium Stearate (0.0827 g)): 15.06 EU
- Change in Endotoxin Level ([2]; suture in Isopropanol w/1% Calcium Stearate (0.0841 g) vs. control suture): −75.6%
- Endotoxin Detected ([2]; suture in Isopropanol w/1% Calcium Stearate (0.0841 g)): 16.59 EU
- Endotoxin Detected ([3]; Water with 5% Calcium Stearate, solution tested after suture removal): <1.0 EU
- Average Change in Endotoxin Level ([3]; sutures 4-6 in LAL Water w/5% Calcium Stearate vs. sutures not submerged): −96.1%
- Average Endotoxin Detected ([3]; sutures 4-6 in LAL Water w/5% Calcium Stearate, untreated average 84 EU): 3.27 EU
- Results (toxicity observed) ([4]; T-1: 2,500,000 EU + 0.2 g Calcium Stearate in 5.0 mL normal saline dosed IP): No Toxicity
- Results (toxicity observed) ([4]; T-1: 2,500,000 EU + 0.2 g Calcium Stearate in 5.0 mL normal saline dosed IP, listed as calcium stearate): no toxicity or adverse effects
- Results (toxicity observed) ([4]; T-2: 5,000,000 EU + 0.2 g Calcium Stearate in 5.0 mL normal saline dosed IP): No Toxicity
- Results (toxicity observed) ([4]; T-2: 5,000,000 EU + 0.2 g Calcium Stearate in 5.0 mL normal saline dosed IP, listed as calcium stearate): no toxicity or adverse effects
